According to ChEMBL document CHEMBL1201862, “PubChem BioAssay data set” (2004):
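Cultured in 96-well plates, cells were exposed to test compound for 48 hours across five concentrations. GI50 is the concentration that inhibits growth by half.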 Calls of active or inactive are those of the source. Rule as the data show it: active = GI50 up to about 1.1 µM and inactive = higher. Where a SMILES comes first, the peptide text is derived from it. The star is where a group is joined. X33 = O=C(c1ccc(-c2ccc(Cl)cc2Cl)o1)*

What was measured:
Assay in all cases: NCI tumour cell line growth inhibition, 48 h
[1] = system: MDA-MB-231
[2] = system: NCI-H23
[3] = system: NCI/ADR-RES
[4] = system: UO-31
[5] = system: A498
[6] = system: A549
[7] = system: HOP-62
[8] = system: OVCAR-4
[9] = system: UACC-62
[10] = system: Hs-578T
[11] = system: SF-268
[12] = system: SNB-75
[13] = system: HOP-92
[14] = system: Malme-3M
[15] = system: SR
[16] = system: MDA-N
[17] = system: U-251
[18] = system: SK-MEL-28
[19] = system: RPMI-8226

| SMILES | GI50 [1] | GI50 [2] | GI50 [3] | GI50 [4] | GI50 [5] | GI50 [6] | GI50 [7] | GI50 [8] | GI50 [9] | GI50 [10] | GI50 [11] | GI50 [12] | GI50 [13] | GI50 [14] | GI50 [15] | GI50 [16] | GI50 [17] | GI50 [18] | GI50 [19] |
| --- | --- | --- | --- | --- | --- | --- | --- | --- | --- | --- | --- | --- | --- | --- | --- | --- | --- | --- | --- |
| Cc1cn(C2CC(Br)C(COC(c3ccccc3)(c3ccccc3)c3ccccc3)O2)c(=O)[nH]c1=O (stereo not given) | 17.7 µM (inactive) | 7.4 µM (inactive) | 13.7 µM (inactive) | 6.71 µM (inactive) | 15.3 µM (inactive) | 10.5 µM (inactive) | 16.9 µM (inactive) | 13 µM (inactive) | 12.2 µM (inactive) | 14.6 µM (inactive) | 13.8 µM (inactive) | 11.5 µM (inactive) | 11.2 µM (inactive) | 17.6 µM (inactive) | 5 µM (inactive) | 14.9 µM (inactive) | 12.3 µM (inactive) | 16.7 µM (inactive) | 4.7 µM (inactive) |
| Cc1nc(N)nc(N)c1N1CCN(Cc2ccccc2)CC1 | > 86.3 µM (inactive) | 17.1 µM (inactive) | 12.8 µM (inactive) | 45.4 µM (inactive) | 42.5 µM (inactive) | 3.56 µM (inactive) | 42.4 µM (inactive) | > 100 µM (inactive) | 30.5 µM (inactive) | 48 µM (inactive) | 16.1 µM (inactive) | > 52.5 µM (inactive) | 35.3 µM (inactive) | 14.2 µM (inactive) | 36.6 µM (inactive) | 21.9 µM (inactive) | 48.8 µM (inactive) | > 78.9 µM (inactive) | > 39 µM (inactive) |
| CCOC(=O)C1(Cc2ccc(C)cc2)Cc2ccc(C)cc2C1=O (stereo not given) | 16.5 µM (inactive) | 18.5 µM (inactive) | 5.01 µM (inactive) | 38.5 µM (inactive) | 23.5 µM (inactive) | 20.9 µM (inactive) | 21.1 µM (inactive) | 36.4 µM (inactive) | 11.8 µM (inactive) | 16.3 µM (inactive) | 48.4 µM (inactive) | 24.3 µM (inactive) | 14.6 µM (inactive) | 16.4 µM (inactive) | 3.61 µM (inactive) | 2.38 µM (inactive) | 10 µM (inactive) | 20.2 µM (inactive) | 12.2 µM (inactive) |
| Oc1ccc(CNCc2ccccc2)c2cccnc12 | 0.36 µM (active) | 0.156 µM (active) | 0.959 µM (active) | 0.316 µM (active) | 0.354 µM (active) | 0.0875 µM (active) | 0.0853 µM (active) | 0.421 µM (active) | 0.5 µM (active) | 0.243 µM (active) | 0.24 µM (active) | 0.0291 µM (active) | 0.177 µM (active) | 0.321 µM (active) | 0.182 µM (active) | 0.0762 µM (active) | 0.0384 µM (active) | 0.424 µM (active) | 0.156 µM (active) |
| N#Cc1nc(-c2ccccc2C(=O)O)oc1N | > 100 µM (inactive) | > 100 µM (inactive) | > 100 µM (inactive) | > 100 µM (inactive) | > 100 µM (inactive) | > 100 µM (inactive) | > 100 µM (inactive) | > 100 µM (inactive) | > 100 µM (inactive) | > 100 µM (inactive) | > 100 µM (inactive) | > 100 µM (inactive) | > 100 µM (inactive) | > 100 µM (inactive) | > 100 µM (inactive) | > 100 µM (inactive) | > 100 µM (inactive) | > 100 µM (inactive) | > 100 µM (inactive) |
| CCN(CC)CCSc1c2cc(OC)ccc2nc2ccc(OC)cc12 | 6.53 µM (inactive) | 3.3 µM (inactive) | 7.67 µM (inactive) | 2.37 µM (inactive) | 23 µM (inactive) | 16.1 µM (inactive) | 16.7 µM (inactive) | 6.03 µM (inactive) | 14.3 µM (inactive) | 1.68 µM (inactive) | 3.08 µM (inactive) | 14.4 µM (inactive) | 2.19 µM (inactive) | 2.75 µM (inactive) | 2.43 µM (inactive) | 4.39 µM (inactive) | 7.94 µM (inactive) | 10.3 µM (inactive) | 2.4 µM (inactive) |
| CN(C)c1ccc(C=C2C(=O)NC(=S)NC2=O)c2ccccc12 | > 100 µM (inactive) | 71.9 µM (inactive) | > 100 µM (inactive) | 60.4 µM (inactive) | 53.7 µM (inactive) | > 100 µM (inactive) | > 100 µM (inactive) | > 100 µM (inactive) | > 100 µM (inactive) | 26.5 µM (inactive) | 29 µM (inactive) | 30.1 µM (inactive) | 25.1 µM (inactive) | 49.9 µM (inactive) | 33.5 µM (inactive) | 42.7 µM (inactive) | 34.3 µM (inactive) | 77.4 µM (inactive) | 39.4 µM (inactive) |
| COC(=O)CCCC(=O)/C(=N\Nc1ccc(Cl)cc1)Nc1c(Cl)cccc1Cl | > 82.8 µM (inactive) | 48.2 µM (inactive) | > 74.1 µM (inactive) | 34.4 µM (inactive) | 29.5 µM (inactive) | 24.3 µM (inactive) | > 67.6 µM (inactive) | 46.3 µM (inactive) | 60 µM (inactive) | 42.8 µM (inactive) | > 89.7 µM (inactive) | 27.5 µM (inactive) | 45 µM (inactive) | 97.1 µM (inactive) | 20.5 µM (inactive) | > 84.5 µM (inactive) | 55.5 µM (inactive) | > 89.3 µM (inactive) | 21.8 µM (inactive) |
| CCC(C)C(NC(=O)CNC(=O)C(Cc1ccccc1)NC(=O)C1CCCN1C(=O)c1ccc(-c2ccc(Cl)cc2Cl)o1)C(=O)OC (stereo not given) (X33-PFGI-OMe; configuration not given here) | 24.7 µM (inactive) | 34.1 µM (inactive) | 36.7 µM (inactive) | 36.8 µM (inactive) | 7.4 µM (inactive) | 23.9 µM (inactive) | 31.1 µM (inactive) | 28.6 µM (inactive) | 25.2 µM (inactive) | 50.2 µM (inactive) | 69.2 µM (inactive) | 23.6 µM (inactive) | 11.2 µM (inactive) | 53.7 µM (inactive) | 12.5 µM (inactive) | 23.4 µM (inactive) | 24.5 µM (inactive) | 27.3 µM (inactive) | 14.7 µM (inactive) |
| OC1C2CCCCN2C[C@@H](O)[C@H]1O (stereo not given in full) | > 100 µM (inactive) | > 100 µM (inactive) | > 100 µM (inactive) | > 100 µM (inactive) | > 100 µM (inactive) | > 100 µM (inactive) | > 100 µM (inactive) | > 100 µM (inactive) | > 100 µM (inactive) | > 100 µM (inactive) | > 100 µM (inactive) | > 100 µM (inactive) | > 100 µM (inactive) | > 100 µM (inactive) | > 100 µM (inactive) | > 100 µM (inactive) | > 100 µM (inactive) | > 100 µM (inactive) | > 100 µM (inactive) |
| CCOC(=O)C1=C(C)C(C(=O)OC)/C(=C/c2cccc3cccnc23)C1=O (stereo not given) | > 10 µM (inactive) | > 10 µM (inactive) | > 10 µM (inactive) | > 10 µM (inactive) | > 10 µM (inactive) | > 10 µM (inactive) | > 10 µM (inactive) | > 10 µM (inactive) | > 10 µM (inactive) | > 10 µM (inactive) | > 10 µM (inactive) | > 10 µM (inactive) | > 10 µM (inactive) | > 10 µM (inactive) | > 10 µM (inactive) | > 10 µM (inactive) | > 10 µM (inactive) | > 10 µM (inactive) | > 10 µM (inactive) |
| C/C(=N\Nc1nc2cc(C)ccc2s1)c1ccccn1 | 0.233 µM (active) | 0.39 µM (active) | 0.261 µM (active) | 0.117 µM (active) | 1.09 µM (active) | 0.798 µM (active) | 0.294 µM (active) | 0.324 µM (active) | 0.596 µM (active) | 1.29 µM (inactive) | 0.505 µM (active) | 2.23 µM (inactive) | 0.282 µM (active) | 0.332 µM (active) | 0.232 µM (active) | 1.68 µM (inactive) | 0.946 µM (active) | 1.61 µM (inactive) | 0.273 µM (active) |
| CN(NC(=O)CCCl)C1=NCCN1 | > 100 µM (inactive) | > 100 µM (inactive) | > 100 µM (inactive) | > 100 µM (inactive) | > 100 µM (inactive) | > 100 µM (inactive) | > 100 µM (inactive) | > 100 µM (inactive) | > 100 µM (inactive) | > 100 µM (inactive) | > 100 µM (inactive) | > 100 µM (inactive) | > 100 µM (inactive) | > 100 µM (inactive) | > 100 µM (inactive) | > 100 µM (inactive) | > 100 µM (inactive) | > 100 µM (inactive) | > 100 µM (inactive) |
| O=C(NC1=C(Cl)C(=O)c2ccccc2C1=O)C(=O)c1c(O)c2ccccc2oc1=O | 3.48 µM (inactive) | 1.53 µM (inactive) | 3.13 µM (inactive) | 7.66 µM (inactive) | 14.7 µM (inactive) | 2.33 µM (inactive) | 5.46 µM (inactive) | 7.4 µM (inactive) | 2.3 µM (inactive) | 5.2 µM (inactive) | 5.62 µM (inactive) | 5.14 µM (inactive) | 12.4 µM (inactive) | 1.07 µM (active) | 3.04 µM (inactive) | 1.37 µM (inactive) | 5.74 µM (inactive) | 2.39 µM (inactive) | 6.19 µM (inactive) |
| Cc1ccc(/N=N/c2c(C)nn(C(=O)CC(=O)Nc3ccccc3)c2C)cc1C | > 100 µM (inactive) | > 100 µM (inactive) | > 100 µM (inactive) | > 100 µM (inactive) | > 100 µM (inactive) | > 100 µM (inactive) | > 100 µM (inactive) | > 100 µM (inactive) | > 100 µM (inactive) | > 100 µM (inactive) | > 100 µM (inactive) | 59.7 µM (inactive) | > 100 µM (inactive) | > 100 µM (inactive) | > 100 µM (inactive) | > 100 µM (inactive) | > 100 µM (inactive) | > 100 µM (inactive) | > 100 µM (inactive) |
